Experiment in all cases: relative viability (nuclei count vs DMSO), 5 days (fraction); higher = more cells survive
Compound in assay [1]: CCC1=CN=CN=C1N2CCN(CC2)CC3=NC4=C(N3)C=C(C=C4)C(F)(F)F + N=C(N)NC(=N)NCCc1ccccc1 [Phenformin] (partner 250 µM)
A digest of the protocol:
(§1)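 Cells from lung cancer lines were seeded into 1536-well plates and, one day later, dosed by pin tool. Treatments were either a single drug or a fixed dose of an anchor drug with five library-drug doses (not always all listed) in √10 steps. After 5 days, nuclei were stained in a one-step fixation (final 0.05% Triton X-100, 1% formaldehyde, 1 ug/ml Hoechst) and counted on 4× images, and relative viability is the treated-to-vehicle nuclei ratio, as the median of duplicate plates.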

Compound in assay [2]: CCn1c(-c2nonc2N)nc2cnc(Oc3cccc(NC(=O)c4ccc(OCCN5CCOCC5)cc4)c3)cc21 + C[C@@H](Oc1cc(-c2cnn(C3CCNCC3)c2)cnc1N)c1c(Cl)ccc(F)c1Cl [Crizotinib] (partner 1 µM)
A digest of the protocol: as §1

Compound in assay [3]: N=C1NC(=O)/C(=C/c2ccc(O)cc2)S1 [Mirin] + CS(=O)(=O)CCNCc1ccc(-c2ccc3ncnc(Nc4ccc(OCc5cccc(F)c5)c(Cl)c4)c3c2)o1 [Lapatinib] (partner 2 µM)
The method, boiled down:
as §1

Compound in assay [4]: CCn1c(-c2nonc2N)nc2cnc(Oc3cccc(NC(=O)c4ccc(OCCN5CCOCC5)cc4)c3)cc21 + CCNC(=O)c1noc(-c2cc(C(C)C)c(O)cc2O)c1-c1ccc(CN2CCOCC2)cc1 [Luminespib] (partner 0.01 µM)
The method, boiled down: as §1

In the case of HCC-78, the relative viability turned out to be 0.614 in assay [1] (first compound 0.04 µM); 0.618 in assay [1] (first compound 0.1265 µM); 0.637 in assay [1] (first compound 0.4 µM); 0.588 in assay [1] (first compound 1.265 µM); 0.555 in assay [1] (first compound 4 µM); 0.429 in assay [2] (first compound 0.04 µM). In addition, the relative viability in assay [2] (first compound 0.1265 µM) worked out at 0.357; in assay [2] (first compound 0.4 µM) it was 0.333; in assay [2] (first compound 1.265 µM) it was 0.393; in assay [2] (first compound 4 µM), 0.399; in assay [3] (first compound 0.25 µM), 0.921; in assay [3] (first compound 0.7906 µM) it was 0.761. In addition, the relative viability was 0.837 in assay [3] (first compound 2.5 µM), 0.774 in assay [3] (first compound 7.906 µM) and 0.552 in assay [3] (first compound 25 µM).

For the cell line HCC-366, the relative viability in assay [1] (first compound 0.04 µM) was found to be 0.539; in assay [1] (first compound 0.1265 µM) it was 0.64; in assay [1] (first compound 0.4 µM), 0.57; in assay [1] (first compound 1.265 µM), 0.432; in assay [1] (first compound 4 µM), 0.536; in assay [2] (first compound 0.04 µM) it was 0.738. Further, the relative viability turned out to be 0.537 in assay [2] (first compound 0.1265 µM); 0.575 in assay [2] (first compound 0.4 µM); 0.0457 in assay [2] (first compound 1.265 µM); 0.0363 in assay [2] (first compound 4 µM); 1.06 in assay [3] (first compound 0.25 µM); 0.957 in assay [3] (first compound 0.7906 µM). The relative viability in assay [3] (first compound 2.5 µM) stood at 1.07; in assay [3] (first compound 7.906 µM) it was 0.986; in assay [3] (first compound 25 µM), 0.752.

Turning to HCC-827, the relative viability was 0.453 in assay [1] (first compound 0.04 µM); 0.357 in assay [1] (first compound 0.1265 µM); 0.406 in assay [1] (first compound 0.4 µM); 0.404 in assay [1] (first compound 4 µM); 1.09 in assay [4] (first compound 0.04 µM); 0.592 in assay [4] (first compound 0.1265 µM). Moreover, the relative viability is 0.792 in assay [4] (first compound 0.4 µM); 0.591 in assay [4] (first compound 1.265 µM); 0.588 in assay [4] (first compound 4 µM); 0.913 in assay [2] (first compound 0.04 µM); 0.903 in assay [2] (first compound 0.1265 µM); 0.951 in assay [2] (first compound 0.4 µM). For the same cell line, the relative viability in assay [2] (first compound 1.265 µM) is 0.892; in assay [2] (first compound 4 µM), 0.803; in assay [3] (first compound 0.25 µM), 0.167; in assay [3] (first compound 0.7906 µM), 0.182; in assay [3] (first compound 2.5 µM) it was 0.17; in assay [3] (first compound 7.906 µM), 0.2. In addition, in assay [3] (first compound 25 µM), the relative viability turned out to be 0.227.

In the case of HOP-62, the relative viability is 0.47 in assay [1] (first compound 0.04 µM); 0.664 in assay [1] (first compound 0.1265 µM); 0.655 in assay [1] (first compound 0.4 µM); 0.653 in assay [1] (first compound 1.265 µM); 0.616 in assay [1] (first compound 4 µM); 1.11 in assay [4] (first compound 0.04 µM). Also, the relative viability was 1.01 in assay [4] (first compound 0.1265 µM); 0.936 in assay [4] (first compound 0.4 µM); 0.764 in assay [4] (first compound 1.265 µM); 0.735 in assay [4] (first compound 4 µM); 0.972 in assay [2] (first compound 0.04 µM); 0.86 in assay [2] (first compound 0.1265 µM). Further, the relative viability in assay [2] (first compound 0.4 µM) turned out to be 0.951; in assay [2] (first compound 1.265 µM), 0.931; in assay [2] (first compound 4 µM), 0.755; in assay [3] (first compound 0.25 µM), 1.05; in assay [3] (first compound 0.7906 µM) it was 1.16; in assay [3] (first compound 2.5 µM), 1.01. The relative viability in assay [3] (first compound 25 µM) was 1.23.

In the case of IA-LM, the relative viability was found to be 1.01 in assay [2] (first compound 0.04 µM); 0.831 in assay [2] (first compound 0.1265 µM); 0.859 in assay [2] (first compound 0.4 µM); 0.699 in assay [2] (first compound 1.265 µM); 0.758 in assay [2] (first compound 4 µM); 0.676 in assay [3] (first compound 0.25 µM). Further, the relative viability in assay [3] (first compound 0.7906 µM) turned out to be 0.851; in assay [3] (first compound 2.5 µM), 1.09; in assay [3] (first compound 7.906 µM) it was 0.431; in assay [3] (first compound 25 µM) it was 0.608.

Regarding LC-2-ad, the relative viability in assay [1] (first compound 0.04 µM) turned out to be 0.52; in assay [1] (first compound 0.1265 µM), 0.547; in assay [1] (first compound 0.4 µM), 0.604; in assay [1] (first compound 1.265 µM), 0.495; in assay [1] (first compound 4 µM) it was 0.679; in assay [4] (first compound 0.04 µM) it was 0.937. The relative viability in assay [4] (first compound 0.1265 µM) was 0.801; in assay [4] (first compound 0.4 µM), 0.715; in assay [4] (first compound 1.265 µM), 0.568; in assay [4] (first compound 4 µM), 0.752; in assay [2] (first compound 0.04 µM), 0.52; in assay [2] (first compound 0.1265 µM), 0.478. Besides, the relative viability in assay [2] (first compound 0.4 µM) stood at 0.435; in assay [2] (first compound 4 µM), 0.347; in assay [3] (first compound 0.25 µM), 0.967; in assay [3] (first compound 0.7906 µM), 1.03; in assay [3] (first compound 2.5 µM), 0.947; in assay [3] (first compound 7.906 µM) it was 0.783. Besides, the relative viability in assay [3] (first compound 25 µM) stood at 0.98.

For the cell line LCLC-97TM1, the relative viability was found to be 0.477 in assay [1] (first compound 0.04 µM); 0.406 in assay [1] (first compound 0.1265 µM); 0.412 in assay [1] (first compound 0.4 µM); 0.478 in assay [1] (first compound 1.265 µM); 0.498 in assay [1] (first compound 4 µM); 0.923 in assay [4] (first compound 0.04 µM). The relative viability in assay [4] (first compound 0.1265 µM) worked out at 0.728; in assay [4] (first compound 0.4 µM) it was 0.664; in assay [4] (first compound 1.265 µM) it was 0.882; in assay [4] (first compound 4 µM), 0.856; in assay [2] (first compound 0.04 µM), 0.278; in assay [2] (first compound 0.1265 µM), 0.524. The relative viability in assay [2] (first compound 1.265 µM) came out at 0.427; in assay [2] (first compound 4 µM) it was 0.596; in assay [3] (first compound 0.25 µM), 1.04; in assay [3] (first compound 0.7906 µM) it was 0.594; in assay [3] (first compound 2.5 µM), 0.857; in assay [3] (first compound 7.906 µM) it was 0.867. The relative viability in assay [3] (first compound 25 µM) turned out to be 1.

Regarding LCLC-103H, the relative viability in assay [1] (first compound 0.04 µM) is 0.303; in assay [1] (first compound 0.1265 µM) it was 0.294; in assay [1] (first compound 0.4 µM), 0.322; in assay [1] (first compound 1.265 µM) it was 0.289; in assay [1] (first compound 4 µM), 0.348; in assay [4] (first compound 0.04 µM), 1.08. Moreover, the relative viability in assay [4] (first compound 0.1265 µM) came out at 1.02; in assay [4] (first compound 0.4 µM), 1.1; in assay [4] (first compound 1.265 µM) it was 0.721; in assay [4] (first compound 4 µM), 0.779; in assay [2] (first compound 0.04 µM), 1.08; in assay [2] (first compound 0.1265 µM), 1.09. The relative viability in assay [2] (first compound 0.4 µM) turned out to be 0.962; in assay [2] (first compound 1.265 µM), 1.01; in assay [2] (first compound 4 µM), 0.967.

For the cell line LK-2, the relative viability came to 0.416 in assay [1] (first compound 0.04 µM); 0.565 in assay [1] (first compound 0.1265 µM); 0.407 in assay [1] (first compound 0.4 µM); 0.23 in assay [1] (first compound 1.265 µM); 0.523 in assay [1] (first compound 4 µM); 0.216 in assay [4] (first compound 0.04 µM). For the same cell line, the relative viability was found to be 0.147 in assay [4] (first compound 0.1265 µM); 0.169 in assay [4] (first compound 0.4 µM); 0.202 in assay [4] (first compound 1.265 µM); 0.244 in assay [4] (first compound 4 µM); 0.222 in assay [2] (first compound 0.04 µM); 0.236 in assay [2] (first compound 0.1265 µM). Further, the relative viability in assay [2] (first compound 0.4 µM) stood at 0.264; in assay [2] (first compound 1.265 µM), 0.242; in assay [2] (first compound 4 µM) it was 0.176; in assay [3] (first compound 0.25 µM), 0.787; in assay [3] (first compound 2.5 µM), 0.879; in assay [3] (first compound 7.906 µM), 0.593. Besides, the relative viability in assay [3] (first compound 25 µM) came to 0.496.

The record behind these values is the supplement of paper PMC10307832.
